For 81 molecules, LC retention time results are on record in the RepoRT retention time repository.

This data set can be described thus: HILIC, Waters ACQUITY UPLC BEH Amide, 100 × 2.1 mm, 1.7 µm; A: water + 0.125% formic acid + 10 mM ammonium formate; B: 5% water + 95% acetonitrile + 0.125% formic acid + 10 mM ammonium formate; gradient (min/%B) 0/100 2/100 7.7/70 9.5/40 10.25/30 12.75/100 17/100. The following applies: stereoisomer not certain.
As for `O=c1ccc2ccccc2o1` [Coumarin], the LC retention time came to 1.08 min.
The result for `NCCc1ccc(O)c(O)c1` [Dopamine] reads 6.4 min; that for `CC1CNC(=O)NC1=O` (stereo unspecified) [5,6-Dihydro-5-methyluracil], 1.57 min; that for `CC(=O)NCCCC(=O)O` [4-Acetamidobutyric acid], 2.26 min.
As for `NC(CSSCC(N)C(=O)O)C(=O)O` (stereo unspecified) [Cystine], the figure is 9.97 min; as for `c1ccc(-c2ccc(C(c3ccccc3)n3ccnc3)cc2)cc1` (stereo unspecified) [Bifonazole], 1.19 min; as for `O=C(O)C1CC(O)CN1C(=O)C1CCCN1` (stereo unspecified) [Proline-hydroxyproline], 8.6 min.
For the molecule `CC(=O)NCCCCCCNC(C)=O`, the LC retention time is 1.5 min.
For the molecule `CC(=O)CCCCn1cnc2c1c(=O)n(C)c(=O)n2C` [Lomifylline], the LC retention time was determined as 1.09 min.
As for `Cn1c(=O)[nH]c2[nH]c(=O)n(C)c2c1=O` [1,7-Dimethyluric acid], the figure is 4.09 min; as for `CN(C)CCOc1ccc(C(=C(CCCl)c2ccccc2)c2ccccc2)cc1` [Toremifene], 1.89 min; as for `Cc1ncc([N+](=O)[O-])n1CCO` [Metronidazole], 1.17 min.
Regarding `Nc1ncnc2c1ncn2C1CC(O)C(CO)O1` (stereo unspecified) [2'-Deoxyadenosine], the LC retention time is 3.92 min.
For the molecule `O=C(O)C1CC(O)CN1` (stereo unspecified) [Hydroxyproline], the LC retention time came to 8.14 min.
Turning to `CNC[C@H](N)C(=O)O` [beta-N-Methylaminoalanine], the LC retention time is 9.32 min.
The result for `O=C(NCCO[N+](=O)[O-])c1cccnc1` [Nicorandil] reads 1.11 min; that for `N#CC(O)c1ccc(O)cc1` (stereo unspecified) [4-Hydroxymandelonitrile], 2.63 min; that for `C=CC1=C(C(=O)O)N2C(=O)C(NC(=O)C(=NOCC(=O)O)c3csc(N)n3)C2SC1` (stereo unspecified) [Cefixime], 7.79 min.
Take `Oc1cc2ccccc2[nH]1` [2-Indolinone]: the LC retention time stood at 1.36 min.
As to `COc1cc(C)c(Cc2cnc(N)nc2N)cc1OC` [Ormetroprim], the LC retention time came out at 4.19 min.
Turning to `Cc1nnc2n1-c1ccc(Cl)cc1C(c1ccccc1)=NC2` [Alprazolam], the LC retention time turned out to be 1.34 min.
On to `CCCCCCCCO` [Octanol], for which the LC retention time turned out to be 8.47 min.
As for `COc1ccc2c(c1)c(CC(=O)O)c(C)n2C(=O)c1ccc(Cl)cc1` [Indomethacin], the figure is 1.08 min.
Consider `CC(=O)OCC(=O)NCCCOc1cccc(CN2CCCCC2)c1` [Roxane], for which the LC retention time amounted to 3.01 min.
Take `O=C1CCc2ccc(OCCCCN3CCN(c4cccc(Cl)c4Cl)CC3)cc2N1` [Aripiprazole]: the LC retention time is 3.14 min.
For `CCOC(=O)C1C(OC(=O)c2ccccc2)CC2CCC1N2C` (stereo unspecified) [Cocaethylene], the LC retention time is 2.12 min.
For `NC(CCS)C(=O)O` (stereo unspecified) [Homocysteine], the LC retention time amounted to 9.58 min.
For `NC(CO)C(=O)O` (stereo unspecified) [Serine], the LC retention time is 8.73 min.
As for `COc1ccc(C=O)cc1OC` [3,4-Dimethoxybenzaldehyde], the LC retention time amounted to 1.08 min.
On to `COc1ccc2[nH]cc(CCN)c2c1` [5-Methoxytryptamine], for which the LC retention time came to 4.99 min.
Take `Nc1nc2[nH]c(=O)cnc2c(=O)[nH]1` [Isoxanthopterin]: the LC retention time is 6.41 min.
As for `NC1C(O)OC(CO)C(O)C1O` (stereo unspecified) [Galactosamine], the figure is 8.44 min; as for `Cc1ccc(NC(=O)c2ccc(CN3CCN(C)CC3)cc2)cc1Nc1nccc(-c2cccnc2)n1` [Imatinib], 5.36 min; as for `O=C(O)c1ccnc2ccccc12` [4-Quinolinecarboxylic acid], 4.58 min.
For the molecule `COc1ccc(Cc2nccc3cc(OC)c(OC)cc23)cc1OC` [Papaverine], the LC retention time stood at 1.54 min.
As for `O=c1ccn(C2OC(CO)C(O)C2O)c(=O)[nH]1` (stereo unspecified) [Uridine], the figure is 4.72 min; as for `CSCCC(=O)C(=O)O` [alpha-Keto-gamma-(methylthio)butyric acid], 0.92 min; as for `CCCCc1oc2ccccc2c1C(=O)c1cc(I)c(OCCN(CC)CC)c(I)c1` [Amiodarone], 1.87 min.
For `NCCCNCCCCNCCCN` [Spermine], the LC retention time turned out to be 7.24 min.
Turning to `CCCCCCCCCCCCCCCCCC(=O)OCC(O)CO` (stereo unspecified) [1-Monostearin], the LC retention time was 0.99 min.
As to `CNC(C(=O)O)C(C)C` (stereo unspecified) [N-Methylvaline], the LC retention time turned out to be 6.99 min.
The result for `CN1C2CCC1C(C(=O)O)C(O)C2` (stereo unspecified) [Ecgonine] reads 7.61 min.
Regarding `CCCCN1CCCC1CNC(=O)c1cc(C#N)c2ccccc2c1OC` (stereo unspecified) [Nafadotride], the LC retention time is 2.05 min.
For `Nc1ccc(C(=O)O)cc1` [4-Aminobenzoic acid], the LC retention time came out at 7.49 min.
The result for `CN1C(=O)CN=C(c2ccccc2)c2cc([N+](=O)[O-])ccc21` [Nimetazepam] reads 0.98 min; that for `Cc1nc2ccccn2c(=O)c1CCN1CCC(C(=O)c2ccc(F)cc2)CC1` [Pirenperone], 3.5 min.
The result for `CC(C)CC(N)C(=O)NC(CCCN=C(N)N)C(=O)O` (stereo unspecified) [Leu-Arg] reads 8.86 min; that for `CCCCCCCCOC(=O)c1ccccc1C(=O)OCCCCCCCC` [Dioctyl Phthalate], 0.96 min.
As for `CCCCCCCCCCCCCCCC(=O)OC(CC(=O)[O-])C[N+](C)(C)C` (stereo unspecified) [Palmitoylcarnitine cation], the figure is 3.23 min.
Regarding `NC(=O)CCC(NC(=O)C1CCCN1)C(=O)O` (stereo unspecified) [Pro-Gln], the LC retention time is 8.75 min.
Regarding `CC1CN(CCCn2c3ccccc3c3ccccc32)CC(C)N1` (stereo unspecified) [Rimcazole], the LC retention time came out at 2.87 min.
Consider `CN1CCC(=C2c3ccccc3CCc3sccc32)CC1` [Pizotifen], for which the LC retention time worked out at 2.33 min.
As for `NC(=O)CCC(NC(=O)CCC(N)C(=O)O)C(=O)O` (stereo unspecified) [gamma-Glutamylglutamine], the figure is 9.55 min; as for `O=C(O)Cc1c[nH]c2ccc(O)cc12` [5-Hydroxy-3-indoleacetic acid], 1.78 min.
As to `CCC(C)C(=O)OC1CCC=C2C=CC(C)C(CCC3CC(O)CC(=O)O3)C21` (stereo unspecified) [Mevastatin], the LC retention time came out at 0.99 min.
The result for `[NH3+]CC(=O)N1CCCC1C(=O)[O-]` (stereo unspecified) [Gly-Pro] reads 8.62 min; that for `Cc1ccc(O)c(C(CCN(C(C)C)C(C)C)c2ccccc2)c1` (stereo unspecified) [Tolterodine], 2.13 min.
Consider `OCC1OC(OCC2OC(O)C(O)C(O)C2O)C(O)C(O)C1O` (stereo unspecified) [Isomaltose], for which the LC retention time came out at 7.19 min.
The result for `Nc1ccccc1S(=O)(=O)O` [Orthanilic acid] reads 2.52 min; that for `Cc1ncc(COP(=O)(O)O)c(C=O)c1O` [Pyridoxal-5-phosphate], 7.7 min; that for `COc1ccnc(CS(=O)c2nc3ccc(OC(F)F)cc3[nH]2)c1OC` (stereo unspecified) [Pantoprazole], 1.21 min.
The result for `NCCS(=O)(=O)O` [Taurine] reads 7.85 min; that for `CC(=O)NO` [Acetohydroxamic acid], 2.94 min.
As for `COc1cc(-c2ccc(=O)[nH]n2)ccc1OC(F)F` [Zardaverine], the figure is 1.19 min; as for `CCCNC1CCc2nc(N)sc2C1` (stereo unspecified) [Pramipexole], 5.7 min; as for `CC(NC(CCCN=C(N)N)C(=O)O)C(=O)O` (stereo unspecified) [Octopine], 10.3 min.
`O=C(O)c1ccc[nH]1` [Pyrrole-2-carboxylic acid]: the LC retention time was determined as 5.66 min.
As for `CC(C)CC(NC(=O)C(COC(C)(C)C)NC(=O)C(Cc1ccc(O)cc1)NC(=O)C(CO)NC(=O)C(Cc1c[nH]c2ccccc12)NC(=O)C(Cc1cnc[nH]1)NC(=O)C1CCC(=O)N1)C(=O)NC(CCCN=C(N)N)C(=O)N1CCCC1C(=O)NNC(N)=O` (stereo unspecified) [Goserelin], the figure is 7.83 min; as for `C=CCC1C=C(C)CC(C)CC(OC)C2OC(O)(C(=O)C(=O)N3CCCCC3C(=O)OC(C(C)=CC3CCC(O)C(OC)C3)C(C)C(O)CC1=O)C(C)CC2OC` (stereo unspecified) [Tacrolimus], 1.07 min; as for `O=P(O)(O)OCC(O)C(O)C(O)C(O)CO` (stereo unspecified) [Sorbitol-6-phosphate], 9.75 min.
Consider `Cn1cnc(C[C@H](N)C(=O)O)c1` [1-Methyl-L-histidine], for which the LC retention time worked out at 9.1 min.
The result for `CCc1c2c(nc3ccc(OC(=O)N4CCC(N5CCCCC5)CC4)cc13)-c1cc3c(c(=O)n1C2)COC(=O)C3(O)CC` (stereo unspecified) [Irinotecan] reads 5.03 min; that for `CC(=O)NC(CO)C(=O)O` (stereo unspecified) [N-Acetylserine], 7.67 min; that for `CC1=C2C3OC(=O)C(C)C3CCC2(C)C=CC1=O` (stereo not drawn) [alpha-Santonin], 1.07 min.
The result for `C=C(C)CN1CCC23c4c5ccc(O)c4OC2c2[nH]c4ccccc4c2CC3(O)C1C5` (stereo unspecified) reads 2.93 min; that for `CCCCCC=CCC=CCCCCCCCC(=O)OC(CC(=O)[O-])C[N+](C)(C)C` (stereo unspecified) [Linoleoylcarnitine], 3.1 min; that for `O=c1ccc2cccc(O)c2[nH]1` [2,8-Quinolinediol], 1.53 min.
As for `CCN(C(C)=O)c1cccc(-c2ccnc3c(C#N)cnn23)c1` [Zaleplon], the figure is 1.02 min.
`CC12CCC(=O)C=C1CCC1C2C(=O)CC2(C)C1CCC2(O)C(=O)CO` (stereo unspecified) [Cortisone]: the LC retention time is 1.29 min.
As for `NC(Cc1ccc(O)cc1)C(=O)NC(Cc1ccc(O)cc1)C(=O)NC(Cc1ccc(O)cc1)C(=O)O` (stereo not drawn) [Tyr-Tyr-Tyr], the figure is 7.09 min; as for `O=C(O)c1cc(N=Nc2ccc(S(=O)(=O)Nc3ccccn3)cc2)ccc1O` [Sulfasalazine], 2.01 min.
